By IC50 is commonly meant the concentration at which inhibition is half-maximal. Read a high IC50 as lower potency. The clearance is the volume of plasma or blood freed of the substance per unit of time. A low value points to a low capacity for elimination. By half-life is commonly meant the time in which the quantity being followed falls by half. A higher half-life goes with slow loss. As usually defined, the bioavailability is the share of a dose that reaches the circulation, judged against a reference dose that is usually intravenous. The low end stands for little systemic uptake, the high end for much systemic uptake. The AUC is the area under the concentration-time curve, a measure of exposure. A lower AUC goes with less exposure. The term Cmax denotes the maximum level reached in the sampled fluid or tissue. As a reminder, the TGI is the reduction of tumour growth relative to the control group. A low value points to a weaker effect on the tumour. The term MRT denotes a mean duration of stay, worked out from the concentration-time curve. A word on the Tmax: it is the time at which the peak concentration occurs.

These results are taken from patent publication US10500224B2, “Mutual prodrug comprising short chain fatty acids and zebularine or 1'-cyano-cytarabine for cancer treatment” (KAINOS MEDICINE, INC., priority 2013, dated 2019).

The test system of series [1] is MOLT-4 (human acute lymphoblastic leukemia). Briefly: Anti-proliferative activity test (CellTiter-Glo), MOLT-4. Format: cell-based. The following applies: MOLT-4, hematological. As for the experimental part:
(§1) Six hundred cells in 90 media were plated per well in duplicates in a 96-well plate. Cells were incubated in a humidified incubator at 37° C. with 5% CO2 during the assay. DMSO was added to the test compounds with the final DMSO concentration being 0.1% [v/v] of the culture. 100 μl of CellTiter-Glo® was added to the equal volume of cultured cells to read luminescence in EnVision Multi Label Reader.
Background: ATP-based viability assays read luminescence as a measure of living cells.

Series [2] relates to MV-4-11 (human biphenotypic B myelomonocytic leukemia). Kind of series: Anti-proliferative activity test (CellTiter-Glo), MV-4-11. Conditions: MV-4-11, hematological. The series is classed as cell-based. As for the experimental part:
as §1

Series [3] has as its system HL-60 (human acute promyelocytic leukemia). Kind of series: Anti-proliferative activity test (CellTiter-Glo), HL-60. The following applies: HL-60, hematological. Format: cell-based. The method, then:
as §1

Series [4] has as its system Hep G2 (human hepatocellular carcinoma). Kind of series: Anti-proliferative activity test (CellTiter-Glo), Hep G2. The series is classed as cell-based. The following applies: Hep G2, liver cancer. The method, then: as §1
Series [5] concerns HCT 116 (human colorectal carcinoma). Kind of series: Anti-proliferative activity test (CellTiter-Glo), HCT 116. The series is classed as cell-based. Conditions: HCT 116, colon cancer. The method, then: as §1
Series [6] has as its system HL-60 human leukemia xenograft. Kind of series: Efficacy of PO-administered Compound 12 in HL-60 human leukemia xenograft. The series is classed as in vivo, NOD/SCID female mice. Conditions: 5 d ON/2 d Off × 2. As for the experimental part:
Tumor growth inhibition (TGI) activities of IP-administered Ara-C, and PO-administered Compound 12 were compared in HL-60 human leukemia xenografts.
NOD/SCID female mice of 6-8 weeks age and weighing approximately 18 to 22 g, were used for tumor inoculation. Each mouse was inoculated subcutaneously at the right flank with HL-60 cancer cells (1×10^7 cells) in mixture of 100 μl of PBS and 100 μl of Matrigel™ for tumor development. Eight mice were used for each group (n=8/group). The amounts of treated compounds are represented in milligram (mg) of compound per kilogram (kg) of animal body weight (mg/kg, mpk). Administration route of the test compound was either intraperitoneal (IP) injection or peros (PO, oral) injection. […] The overall administration schedule was 2 cycles of treatment for 5 days (5 d ON), followed by 2 days of non-treatment (2 d OFF). Tumor sizes were measured using a caliper, once every 4 days, and the tumor volume was expressed in mm^3 using Equation 1: V=0.5a×b^2 [Equation 1]
Wherein, a and b are the long and short diameters of the tumor, respectively.
The tumor volume (mm^3) and body weight (g) results of the three groups are shown in FIGS. 4A and 4B, respectively.
(In xenograft studies the graft and the host belong to different species.)

Series [7] deals with HL-60 human leukemia xenograft. Briefly: Tumor growth inhibition of IP-administered Compound 12 in HL-60 human leukemia xenograft. Format: in vivo, NOD/SCID female mice. As for the experimental part: Tumor growth inhibition activities of IP-administered Ara-C and Compound 12 were compared in HL-60 human leukemia xenograft.
NOD/SCID female mice of 6-8 weeks age and weighing approximately 18 to 22 g, were used for tumor inoculation. Each mouse was inoculated subcutaneously at the right flank with HL-60 tumor cells (1×10^7 cells) in mixture of 100 μl of PBS and 100 of μl Matrigel™ for tumor development. Eight mice were used for each group (n=8/group). The amounts of treated compounds are represented in milligram (mg) of compound per kilogram (kg) of animal body weight (mg/kg, mpk). Administration route of all test compounds was through IP injection. […] The overall administration schedule was 2 cycles of compound treatment for 5 days, followed by 2 days of non-treatment. Tumor sizes were measured using a caliper, once every 4 days, and the tumor volume was expressed in mm^3 using Equation 1.
The tumor volume (mm^3) and body weight (g) results of five groups are shown in FIGS. 5A and 5B, respectively.

Series [8] has as its target T1, recombinant human cytidine deaminase (CDA) (Homo sapiens, UniProt P32320).
T1 construct: His6; host or cells: E. coli
Briefly: Cytidine deaminase (CDA) assay. Format: biochemical.

Series [9] is described as follows: Mouse pharmacokinetics of Compound 12. Format: in vivo, ICR mice. The following applies: ICR, plasma, 10 mg/kg. The method, then: (§2) Pharmacokinetics of Compound 12 prepared in Example 1 were evaluated in ICR mice and SD rats following intravenous (IV) administration at 10 mg/kg and peroral (PO) administration at 10 mg/kg dose level, respectively.
(§3) For serum compound analysis, blood samples were collected by cardiac puncture over 24 hr time course. 20 μl of spiked plasma was added into 96 well plate, adding ten volumes of internal standard (IS) in acetonitrile (ACN) to precipitate proteins, mixed fully, centrifuged for 10 min at 4,000 rpm. 150 μl of supernatant was transferred to another pre-labeled 96 well plate, mixed with 150 μl of water, then injected 5 μl or 10 μl into the liquid chromatography-mass spectrometry (LC-MS) system under the following conditions:
(§4) Column: API-4000+Waters UPLC (TCLM08);
(§5) Lower limit of quantification (LLOQ) was at 1 ng/mL. Pharmacokinetic parameters of half-life (T1/2), clearance (CL), maximum plasma concentration (Cmax), time when the maximal serum concentration of compound is achieved (Tmax) and bioavailability (F %), exposure (AUC) and volume of distribution (Vss) of the compound were calculated using Phoenix WinNonlin 6.3 (non-compartmental model).

Series [10] is described as follows: Rat pharmacokinetics of Compound 12. The series is classed as in vivo, SD rats. The following applies: SD, plasma, 10 mg/kg. The method, then: as §2, §3, §4, §5
A short description of series [11]: Pharmacokinetics of Compounds 16, 22 and 23. The series is classed as in vivo, SCID/mice. The following applies: SCID, mouse, plasma. The method, then: Pharmacokinetics of Compound 16 (Comparative example) prepared in step 3 of Example 2, and mutual prodrugs of Compounds 22 and 23 prepared in Example 3 and 4, respectively, were evaluated in SCID/mice following oral (PO) and intravenous (IV) administration according to the route/dose as shown in Table 4.
Blood samples were collected over 24 hrs, and plasma samples were prepared. Plasma concentrations of the test compounds were analyzed by LC/MS/MS. The maximum plasma concentration (Cmax), exposure (AUC), bioavailability (F %), half-life (T1/2), clearance (CL), volume of distribution (Vss), time when the maximal serum concentration of compound is achieved (Tmax) and mean residence time (MRT) were calculated as were in Test Example 3.

The subject of a further series is MOLT-4 xenograft. Kind of series: Tumor growth inhibition of Compounds 22 and 23 in MOLT-4 xenograft. The series is classed as in vivo, mice.
Where [12] appears, read: 150 mpk, 5 d ON/2 d OFF × 2, FIG. 6.

T1 sequence (P32320 whole entry): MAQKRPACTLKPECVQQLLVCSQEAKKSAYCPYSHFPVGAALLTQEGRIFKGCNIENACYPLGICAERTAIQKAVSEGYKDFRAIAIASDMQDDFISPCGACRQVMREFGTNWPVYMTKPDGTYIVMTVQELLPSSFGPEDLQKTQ

Regarding `Nc1ccn([C@@H]2O[C@H](CO)[C@@H](O)[C@@H]2O)c(=O)n1` [Ara-C, cytarabine], the IC50 came to 20 nM in [1] (Homo sapiens); 3100 nM in [2] (Homo sapiens, MV4-11); 630 nM in series [3] (Homo sapiens); 1910 nM in series [4] (Homo sapiens, HepG2); 290 nM in [5] (Homo sapiens). In addition, in series [6] (40 mpk, IP), the “% BW change” value was −6.2%. Moreover, in series [6] (40 mpk, IP), the “% TGI” value is 46%. In addition, the “TGI (%)” value in series [7] (60 mpk) is on record as 60%.
As to `N#C[C@@]1(n2ccc(N)nc2=O)O[C@H](CO)[C@@H](O)[C@@H]1O` [Compound 11], the “susceptibility to deamination by CDA” value in series [8] is on record as “resistant to deamination by CDA”. For the same compound, the Relative rxn velocity in [8] (0.01 mM substrate, 25° C., OD282, relative to cytidine) is less than 0.01. Further, the IC50 in series [1] stood at 1060 nM; in series [2] it was 5000 nM; in [3], 2410 nM; in series [4], 6000 nM; in [5], 960 nM.
As to `CCCC(=O)OC[C@H]1O[C@@](C#N)(n2ccc(N)nc2=O)[C@@H](O)[C@@H]1O` [Compound 12, ((2R,3S,4S,5R)-5-(4-amino-2-oxopyrimidin-1(2H)-yl)-5-cyano-3,4-dihydroxytetrahydrofuran-2-yl)methyl Butyrate], the IC50 in [1] (Homo sapiens) was 1140 nM; in [2] (Homo sapiens, MV4-11) it was 130 nM; in [3] (Homo sapiens), 5060 nM; in [4] (Homo sapiens, HepG2) it was 560 nM; in series [5] (Homo sapiens), 220 nM. Also, the results for the clearance in series [9] (IV) and in series [10] (IV) were 21.6 mL/min/kg and 11.4 mL/min/kg, respectively. In addition, the half-life in series [9] (IV) is 3.1 h; in series [9] (PO) it was 4.6 h; in series [10] (IV) it was 3.1 h; in [10] (PO) it was 2.5 h. Besides, the bioavailability in series [9] (PO) is 62%; in series [10] (PO), 48.8%. For the same compound, in [6] (60 mpk, PO), the “% BW change” value is −0.9%. In [6] (60 mpk, PO), the “% TGI” value was 50%. Besides, the “TGI (%)” value is given as 36% in series [7] (20 mpk), 46% in [7] (40 mpk) and 59% in series [7] (60 mpk).
Regarding `O=c1ncccn1[C@@H]1O[C@H](CO)[C@@H](O)[C@H]1O` [Compound 16, 1-((2R,3R,4S,5R)-3,4-dihydroxy-5-(hydroxymethyl)tetrahydrofuran-2-yl)pyrimidin-2(1H)-one, reference compound], in series [11] (100 mg/kg, IV/100 mpk), the AUC worked out at 54600 ng·h/mL, the clearance was found to be 30.2 mL/min/kg and the half-life was 2.03 h. In [11] (100 mg/kg, IV/100 mpk, read-out: Vss), the Vd was 0.91 L/kg. In addition, in series [11] (500 mg/kg, PO/500 mpk), the AUC was determined as 20900 ng·h/mL, the peak level (Cmax) was 22.3 µM, the bioavailability was 8.4% and the half-life was 2.44 h. The TGI in the series on MOLT-4 xenograft (zebularine, dose not stated, FIG. 6) amounted to 10%.
In [11] (75 mg/kg, PO/75 mpk), `CCCC(=O)OC[C@H]1O[C@@H](n2cccnc2=O)[C@H](OC(=O)CCC)[C@@H]1OC(=O)CCC` [Compound 22, (2R,3R,4R,5R)-2-((butyryloxy)methyl)-5-(2-oxopyrimidin-1(2H)-yl)tetrahydrofuran-3,4-diyl Dibutyrate] gave an exposure (AUC) of 500 ng·h/mL and a Cmax of 0.88 µM. Moreover, in series [11] (150 mg/kg, PO/150 mpk), the AUC came to 1100 ng·h/mL, the Cmax came to 4.4 µM, the MRT came to 1.2 h and the Tmax amounted to 0.5 h. Also, in [11] (150 mg/kg, PO/150 mpk), the bioavailability is 2.7% and the half-life is 1.6 h. In the series with MOLT-4 xenograft (setting [12]), this compound showed a TGI of 40%.
In series [11] (75 mg/kg, PO/75 mpk), `CC(C)C(=O)OC[C@H]1O[C@@H](n2cccnc2=O)[C@H](OC(=O)C(C)C)[C@@H]1OC(=O)C(C)C` [Compound 23, (2R,3R,4R,5R)-2-((isobutyryloxy)methyl)-5-(2-oxopyrimidin-1(2H)-yl)tetrahydrofuran-3,4-diyl bis(2-methylpropanoate)] showed an AUC of 1800 ng·h/mL and a Cmax of 5.3 µM. For the same compound, in series [11] (150 mg/kg, PO/150 mpk), the AUC turned out to be 6500 ng·h/mL, the Cmax came out at 30.7 µM, the MRT was determined as 1.3 h and the Tmax was 0.5 h. In series [11] (150 mg/kg, PO/150 mpk), this compound showed a bioavailability of 16% and a half-life of 4.9 h. Moreover, the TGI with MOLT-4 xenograft (setting [12]) turned out to be 40%.
